Measurements as given in patent publication US20230158158A1, “PYRAZOLO QUINAZOLINE DERIVATIVE COMPOUNDS INDUCING SELECTIVE DEGRADATION OF PLK1” (UPPTHERA, priority 2020, published 2023).

Molecular target: T1, PLK1 (Homo sapiens, UniProt P53350)
T1 construct: endogenous in cells; host or cells: HeLa
Test: PLK1 protein degradation by western blotting in HeLa cells
Assay type: cell-based
Settings: thymidine block and release, compound 100 nM, 6 hours, PLK1/GAPDH ratio, read-out: PLK1 protein degradability (Dmax)
Experimental: The HeLa cell line was purchased from Korea Cell Line Bank (KCLB), Seoul, Korea. The passage in cell culture was maintained at P115 to P125.
2×10^5 cells were seeded for each well of a 12-well plate (SPL), and the cells were cultured in the culture medium in a total volume of 2 ml.
The compounds of Examples were completely dissolved in DMSO and used in the experiment, and thymidine was completely dissolved in DW and used in the experiment. For thymidine block, the products were treated with 2 mM of thymidine (Sigma-Aldrich Cat. No. T9250-5G) and then incubated for 24 hours.
For release and chemical treatment, the medium was suctioned and washed 3 times with 1×PBS. Complete media was added, followed by incubation for 4 hours in a CO2 incubator. Each compound was treated according to the concentration of 100 nM and then incubated for 6 hours again.
For SDS-PAGE and Western blotting, 1×RIPA lysis buffer (Rockland, Cat. No. MB-030-0050; Lot no. 39751), 100× Protease Inhibitor Cocktail (Quartett, Cat. No. PPI1015; Lot no. PC050038424), Pierce ? BCA protein assay kit (ThermoScientific, Cat. No. 23225; Lot no. UC276876), albumin standard (ThermoScientific, Cat. No. 23209; Lot no. UB269561), 4-15% Mini-PROTEAN TGX stain-free gel (Bio-rad, Cat. No. 4568085; Lot no. L007041B), 10× Tris/Glycine/SDS buffer (Bio-rad, Cat. No. 1610732; Lot no. 10000044375B); 10×TBS (Bio-rad, Cat. No. 1706435; Lot no. 1000045140B), 10% Tween 20 (Cat. No. 1610781; Lot no. L004152B), Color protein standard broad range (NEB, Cat. No. P7719S; Lot no. 10040349), 4× Laemmli sample buffer (Bio-rad, Cat. No. 1610747; Lot no. L004133B), β-mercaptoethanol (Sigma-Aldrich, Cat. No. M3148; Lot no. 60-24-2), SuperBlock ? T20 (TBS) blocking buffer (ThermoScientific, Cat. No. 37536; Lot no. UC282578), 1M sodium azide solution (Sigma-Aldrich, Cat. No. 08591-1 mL-F; Lot no. BCBV4989), α-Rabbit pAb to Ms IgG (abcam, Cat. No. ab97046; Lot no. GR3252115-1), α-Goat pAb to Rb IgG (CST, Cat. No. 7074S; Lot no. 28), α-GAPDH (abeam, Cat. No. ab8245; Lot no. GR3275542-2), α-Plk1 (CST, Cat. No. 208G4), α-BRD4 (CST, Cat. No. 13440S), ECL ? Prime western blotting reagents (GE Healthcare, Cat. No. RPN2232; Lot no. 17001655), Ponceau S solution (Sigma-Aldrich, Cat. No. P7170; Lot no. SLBV4112), Difco ? […]
Then, a standard curve was obtained using the BCA assay, and the protein mass in the lysate was quantified by substituting the curve equation. The mixture was incubated at 37° C. for 30 minutes using 20 μL of standard or sample solution, and 200 μL of BCA or Bradford solution, and measured at 562 nm absorbance. Samples were prepared by adding 4× sample buffer so that the quantity of protein added to each well was 15 μg. […]

T1 sequence (P53350 whole entry): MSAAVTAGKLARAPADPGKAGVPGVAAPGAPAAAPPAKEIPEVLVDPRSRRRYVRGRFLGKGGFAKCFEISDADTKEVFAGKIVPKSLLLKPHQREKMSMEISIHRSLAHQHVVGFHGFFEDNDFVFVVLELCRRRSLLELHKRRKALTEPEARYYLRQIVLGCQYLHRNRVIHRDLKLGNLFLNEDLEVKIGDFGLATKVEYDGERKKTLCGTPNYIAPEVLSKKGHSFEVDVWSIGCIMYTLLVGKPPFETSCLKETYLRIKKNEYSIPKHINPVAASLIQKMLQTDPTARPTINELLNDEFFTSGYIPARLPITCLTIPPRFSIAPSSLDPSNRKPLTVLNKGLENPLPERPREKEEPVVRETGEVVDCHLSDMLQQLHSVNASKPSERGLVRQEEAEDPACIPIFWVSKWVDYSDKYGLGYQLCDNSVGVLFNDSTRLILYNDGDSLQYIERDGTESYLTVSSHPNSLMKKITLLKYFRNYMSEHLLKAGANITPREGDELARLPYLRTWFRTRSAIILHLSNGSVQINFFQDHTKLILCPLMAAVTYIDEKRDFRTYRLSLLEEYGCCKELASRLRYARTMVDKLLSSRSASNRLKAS

| Dmax at 0.1 µM [%] | SMILES |
| --- | --- |
| ≥ 60 | COc1c(Nc2ncc3c(n2)-c2c(c(C(N)=O)nn2C)CC3)cc(N2CCN(C)CC2)cc1C(=O)NCCOCCOCC(=O)N[C@H](C(=O)N1C[C@H](O)C[C@H]1C(=O)NCc1ccc(-c2scnc2C)cc1)C(C)(C)C [Compound 9, 8-((3-((2-(2-(2-(((S)-1-((2S,4R)-4-hydroxy-2-((4-(4-methylthiazol-5-yl)benzyl)carbamoyl)pyrrolidin-1-yl)-3,3-dimethyl-1-oxobutan-2-yl)amino)-2-oxoethoxy)ethoxy)ethyl)carbamoyl)-2-methoxy-5-(4-methylpiperazin-1-yl)phenyl)amino)-1-methyl-4,5-dihydro-1H-pyrazolo[4,3-h]quinazoline-3-carboxamide] |
| ≥ 60 | COc1c(Nc2ncc3c(n2)-c2c(c(C(N)=O)nn2C)CC3)cc(N2CCN(C)CC2)cc1C(=O)NCCOCCOCCNc1cccc2c1C(=O)N(C1CCC(=O)NC1=O)C2=O (stereo not shown) [Compound 2, 8-((3-((2-(2-(2-((2-(2,6-dioxopiperidin-3-yl)-1,3-dioxoisoindolin-4-yl)amino)ethoxy)ethoxy)ethyl)carbamoyl)-2-methoxy-5-(4-methylpiperazin-1-yl)phenyl)amino)-1-methyl-4,5-dihydro-1H-pyrazolo[4,3-h]quinazoline-3-carboxamide] |
| ≥ 60 | COc1c(Nc2ncc3c(n2)-c2c(c(C(N)=O)nn2C)CC3)cc(N2CCN(C)CC2)cc1C(=O)NCCOCCOCCOCCNc1cccc2c1C(=O)N(C1CCC(=O)NC1=O)C2=O (stereo not shown) [Compound 3, 8-((3-((2-(2-(2-(2-((2-(2,6-dioxopiperidin-3-yl)-1,3-dioxoisoindolin-4-yl)amino)ethoxy)ethoxy)ethoxy)ethyl)carbamoyl)-2-methoxy-5-(4-methylpiperazin-1-yl)phenyl)amino)-1-methyl-4,5-dihydro-1H-pyrazolo[4,3-h]quinazoline-3-carboxamide] |
| ≥ 60 | Cn1nc(C(N)=O)c2c1-c1nc(Nc3cc(N4CCN(CCOCCOCCOCCOCCNc5cccc6c5C(=O)N(C5CCC(=O)NC5=O)C6=O)CC4)ccc3OC(F)(F)F)ncc1CC2 (stereo not shown) [Compound 7, 8-((5-(4-(14-((2-(2,6-dioxopiperidin-3-yl)-1,3-dioxoisoindolin-4-yl)amino)-3,6,9,12-tetraoxatetradecyl)piperazin-1-yl)-2-(trifluoromethoxy)phenyl)amino)-1-methyl-4,5-dihydro-1H-pyrazolo[4,3-h]quinazoline-3-carboxamide] |
